These results are taken from patent US10670605B2, “Cysteine reactive probes and uses thereof” (The Scripps Research Institute, priority 2015, dated 2020).

What all share (assay): Competitive isoTOP-ABPP in situ (fragment-treated cells)
Common to all, as to type: cell-based

The target of assay [1] is T1, cysteines in MDA-MB-231 and Ramos cells (Homo sapiens, UniProt Q99757).
T1 sequence (Q99757 60-166): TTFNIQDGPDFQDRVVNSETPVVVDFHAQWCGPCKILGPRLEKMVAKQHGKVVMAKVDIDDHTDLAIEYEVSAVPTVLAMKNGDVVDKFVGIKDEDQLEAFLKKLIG
The note with it: 200 μM, insitu, 231.

Assay [2] has as its target T2, cysteines in MDA-MB-231 and Ramos cells (Homo sapiens, UniProt O95229).
T2 sequence (O95229 1-277): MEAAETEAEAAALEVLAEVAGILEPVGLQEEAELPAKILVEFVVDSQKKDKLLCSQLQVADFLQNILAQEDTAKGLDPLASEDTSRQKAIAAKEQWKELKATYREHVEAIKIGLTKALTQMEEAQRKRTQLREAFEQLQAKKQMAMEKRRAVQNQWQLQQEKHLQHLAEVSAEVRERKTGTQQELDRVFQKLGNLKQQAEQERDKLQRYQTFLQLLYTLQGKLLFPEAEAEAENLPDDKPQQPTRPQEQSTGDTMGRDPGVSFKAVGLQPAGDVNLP
As to conditions: 200 μM, insitu.

Assay [3] addresses T3, cysteines in MDA-MB-231 and Ramos cells (Homo sapiens, UniProt Q09161).
T3 sequence (Q09161 1-790): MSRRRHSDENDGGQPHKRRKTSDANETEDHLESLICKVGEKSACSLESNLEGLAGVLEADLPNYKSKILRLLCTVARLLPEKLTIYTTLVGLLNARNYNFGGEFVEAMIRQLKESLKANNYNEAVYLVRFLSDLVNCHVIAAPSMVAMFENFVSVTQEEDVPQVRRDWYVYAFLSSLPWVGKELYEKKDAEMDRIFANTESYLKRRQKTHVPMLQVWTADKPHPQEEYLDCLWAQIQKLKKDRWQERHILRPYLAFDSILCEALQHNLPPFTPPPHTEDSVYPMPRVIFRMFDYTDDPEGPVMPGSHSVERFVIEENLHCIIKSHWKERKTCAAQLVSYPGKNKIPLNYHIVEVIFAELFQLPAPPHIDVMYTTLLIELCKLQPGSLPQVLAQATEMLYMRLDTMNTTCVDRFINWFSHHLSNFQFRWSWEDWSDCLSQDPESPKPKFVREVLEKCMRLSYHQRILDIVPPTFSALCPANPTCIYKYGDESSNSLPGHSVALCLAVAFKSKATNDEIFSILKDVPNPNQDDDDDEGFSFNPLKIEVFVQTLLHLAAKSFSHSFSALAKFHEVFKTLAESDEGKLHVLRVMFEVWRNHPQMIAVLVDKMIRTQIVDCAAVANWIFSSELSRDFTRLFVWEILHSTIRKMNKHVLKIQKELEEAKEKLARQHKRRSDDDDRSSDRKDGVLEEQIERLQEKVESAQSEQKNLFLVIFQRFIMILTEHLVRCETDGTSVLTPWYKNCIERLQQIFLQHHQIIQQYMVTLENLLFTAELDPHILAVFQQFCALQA
The note with it: 200 μM, insitu, 231.

In assay [4] the target is T4, cysteines in MDA-MB-231 and Ramos cells (Homo sapiens, UniProt Q9HAV7).
T4 sequence (Q9HAV7 28-217): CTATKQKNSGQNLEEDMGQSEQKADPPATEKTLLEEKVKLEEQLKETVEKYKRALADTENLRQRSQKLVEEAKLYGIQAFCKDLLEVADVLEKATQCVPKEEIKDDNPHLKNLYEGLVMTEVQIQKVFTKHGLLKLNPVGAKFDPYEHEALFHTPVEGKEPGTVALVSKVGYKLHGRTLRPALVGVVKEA
The note with it: 200 μM, insitu, 231.

Assay [5] concerns the target T5, cysteines in MDA-MB-231 and Ramos cells (Homo sapiens, UniProt P10599).
T5 sequence (P10599 1-105): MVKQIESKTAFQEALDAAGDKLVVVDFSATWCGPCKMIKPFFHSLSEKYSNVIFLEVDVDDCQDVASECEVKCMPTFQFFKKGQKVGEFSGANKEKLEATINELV
The note with it: 200 μM, insitu.

Assay [6] has as its target T6, cysteines in MDA-MB-231 and Ramos cells (Homo sapiens, UniProt P52597).
T6 sequence (P52597 1-415): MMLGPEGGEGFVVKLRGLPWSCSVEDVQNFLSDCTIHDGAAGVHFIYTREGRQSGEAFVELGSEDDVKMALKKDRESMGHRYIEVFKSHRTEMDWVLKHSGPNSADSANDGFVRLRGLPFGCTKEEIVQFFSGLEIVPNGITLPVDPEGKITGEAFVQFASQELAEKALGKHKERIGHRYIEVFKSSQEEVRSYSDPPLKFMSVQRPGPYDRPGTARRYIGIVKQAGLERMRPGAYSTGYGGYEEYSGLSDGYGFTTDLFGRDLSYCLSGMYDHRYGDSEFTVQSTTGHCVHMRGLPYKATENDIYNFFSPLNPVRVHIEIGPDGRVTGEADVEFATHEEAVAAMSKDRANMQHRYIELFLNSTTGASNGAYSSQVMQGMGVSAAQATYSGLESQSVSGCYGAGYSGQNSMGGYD
The note with it: 200 μM, insitu.

For assay [7], the target named is T7, cysteines in MDA-MB-231 and Ramos cells (Homo sapiens, UniProt Q9BVC5).
T7 sequence (Q9BVC5 1-232): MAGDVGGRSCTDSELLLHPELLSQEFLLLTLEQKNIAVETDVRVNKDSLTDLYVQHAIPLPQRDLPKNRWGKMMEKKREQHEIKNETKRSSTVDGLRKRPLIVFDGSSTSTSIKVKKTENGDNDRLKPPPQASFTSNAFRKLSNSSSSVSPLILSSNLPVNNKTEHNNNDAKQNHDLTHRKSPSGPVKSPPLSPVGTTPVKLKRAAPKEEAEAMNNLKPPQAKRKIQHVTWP
As to conditions: 200 μM, insitu, 231.

In assay [8] the target is cysteines in MDA-MB-231 and Ramos cells (Homo sapiens, UniProt Q93009). As to conditions: 200 μM, insitu.
Assay [9] deals with cysteines in MDA-MB-231 and Ramos cells (Homo sapiens, UniProt P38606). The note with it: 200 μM, insitu.
Chain of cysteines in MDA-MB-231 and Ramos cells (Homo sapiens, UniProt P38606) (P38606 whole entry): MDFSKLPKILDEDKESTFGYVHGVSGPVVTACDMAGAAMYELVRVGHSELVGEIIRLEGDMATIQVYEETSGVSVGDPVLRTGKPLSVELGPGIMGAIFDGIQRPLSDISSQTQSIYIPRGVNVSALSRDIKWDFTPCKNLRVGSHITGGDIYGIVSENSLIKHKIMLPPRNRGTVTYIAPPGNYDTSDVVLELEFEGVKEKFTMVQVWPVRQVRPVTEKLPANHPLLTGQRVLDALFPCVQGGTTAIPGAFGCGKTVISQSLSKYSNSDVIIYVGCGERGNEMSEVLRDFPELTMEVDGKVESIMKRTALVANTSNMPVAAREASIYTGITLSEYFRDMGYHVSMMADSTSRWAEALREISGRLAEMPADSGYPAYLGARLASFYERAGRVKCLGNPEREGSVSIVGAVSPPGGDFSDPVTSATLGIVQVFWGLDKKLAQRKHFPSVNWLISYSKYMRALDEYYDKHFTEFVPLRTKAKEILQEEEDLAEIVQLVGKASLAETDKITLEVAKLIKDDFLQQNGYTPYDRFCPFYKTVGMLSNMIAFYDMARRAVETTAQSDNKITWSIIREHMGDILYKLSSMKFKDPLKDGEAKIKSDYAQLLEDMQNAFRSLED

Chain of cysteines in MDA-MB-231 and Ramos cells (Homo sapiens, UniProt Q93009) (Q93009 whole entry): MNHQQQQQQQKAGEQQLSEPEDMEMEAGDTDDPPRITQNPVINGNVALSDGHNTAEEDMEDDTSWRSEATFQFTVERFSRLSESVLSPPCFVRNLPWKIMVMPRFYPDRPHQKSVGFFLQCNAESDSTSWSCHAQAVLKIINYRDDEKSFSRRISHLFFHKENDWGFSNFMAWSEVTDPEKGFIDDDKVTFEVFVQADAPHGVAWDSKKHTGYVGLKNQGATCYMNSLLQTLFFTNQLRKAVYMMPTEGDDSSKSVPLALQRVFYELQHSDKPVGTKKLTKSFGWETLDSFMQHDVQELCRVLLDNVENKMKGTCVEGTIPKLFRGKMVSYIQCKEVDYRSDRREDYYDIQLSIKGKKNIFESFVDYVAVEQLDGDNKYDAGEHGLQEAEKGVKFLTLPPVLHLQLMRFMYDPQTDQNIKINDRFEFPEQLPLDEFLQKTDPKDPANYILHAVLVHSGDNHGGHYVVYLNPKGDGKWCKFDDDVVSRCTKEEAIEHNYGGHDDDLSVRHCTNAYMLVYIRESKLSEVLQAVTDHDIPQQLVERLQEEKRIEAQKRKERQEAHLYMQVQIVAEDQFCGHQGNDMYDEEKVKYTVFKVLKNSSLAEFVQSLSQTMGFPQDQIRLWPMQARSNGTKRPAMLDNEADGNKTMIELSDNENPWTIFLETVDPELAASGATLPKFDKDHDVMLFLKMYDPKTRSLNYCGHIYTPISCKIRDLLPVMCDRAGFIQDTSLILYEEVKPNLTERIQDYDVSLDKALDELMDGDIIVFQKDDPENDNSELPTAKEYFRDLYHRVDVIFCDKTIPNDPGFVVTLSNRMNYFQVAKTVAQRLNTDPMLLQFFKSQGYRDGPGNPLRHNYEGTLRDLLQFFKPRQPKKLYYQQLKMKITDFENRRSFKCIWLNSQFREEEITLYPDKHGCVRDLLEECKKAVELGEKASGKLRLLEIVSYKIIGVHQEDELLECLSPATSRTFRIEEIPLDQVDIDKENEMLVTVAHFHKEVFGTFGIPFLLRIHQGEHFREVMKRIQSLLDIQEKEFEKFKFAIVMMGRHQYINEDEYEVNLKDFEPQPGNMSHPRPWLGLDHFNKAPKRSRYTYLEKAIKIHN

For `COc1ccc2c(c1)CCCN2C(=O)CCl` [compound 2], the “isoTOP-ABPP reactivity Q99757_C90 TXN2” value in assay [1] is listed as 10.1. The “isoTOP-ABPP reactivity O95229_C54 ZWINT” value in assay [2] (231) was 3.4. Besides, in [3], the “isoTOP-ABPP reactivity Q09161_C44 NCBP1” value is 2.1. For the same compound, the “isoTOP-ABPP reactivity Q9HAV7_C124 GRPEL1” value in [4] was determined as 3.2. Further, the “isoTOP-ABPP reactivity P10599_C32 TXN” value in assay [5] (231) is reported as 7.9. The “isoTOP-ABPP reactivity P52597_C267 HNRNPF” value in [6] (231) worked out at 4.2. Also, the “isoTOP-ABPP reactivity Q9BVC5_C10 C2orf49” value in assay [7] turned out to be 2.7.

With `COc1ccccc1OCCNC(=O)CCl` [compound 28], in assay [2] (231), the “isoTOP-ABPP ratio O95229_C54” value was 0.7. Besides, the “isoTOP-ABPP ratio Q93009_C223” value in assay [8] (231) came to 1.0. Moreover, the “isoTOP-ABPP ratio P10599_C32” value in assay [5] (231) was found to be 20.0. For the same compound, the “isoTOP-ABPP ratio Q9BVC5_C10” value in [7] came out at 0.9.

As for `O=C(CCl)NCCc1c[nH]c2ccccc12` [compound 13], the “isoTOP-ABPP ratio O95229_C54” value in assay [2] (231) is recorded as 0.8; in assay [2] (ramos) it was 1.4. The “isoTOP-ABPP ratio Q93009_C223” value in assay [8] (ramos) was 1.3. In addition, the “isoTOP-ABPP ratio Q09161_C44” value in assay [3] was found to be 1.0. For the same compound, the “isoTOP-ABPP ratio P10599_C32” value in assay [5] (231) is reported as 7.9; in assay [5] (ramos), 4.1. For the same compound, the figures for the “isoTOP-ABPP ratio P52597_C267” value in assay [6] (231) and in assay [6] (ramos) were 1.2 and 1.3, respectively. The “isoTOP-ABPP ratio Q9BVC5_C10” value in assay [7] is listed as 1.6. The “isoTOP-ABPP ratio P38606_C138” value in assay [9] (231) is on record as 20.0.

Turning to `Cc1ccc(C=C(C#N)C(=O)NCCN2CCOCC2)cc1` [compound 41], in assay [1], the “isoTOP-ABPP ratio Q99757_C90” value is reported as 0.5. The “isoTOP-ABPP ratio O95229_C54” value in assay [2] (231) was 0.6. In addition, the “isoTOP-ABPP ratio Q09161_C44” value in assay [3] came out at 0.8. In addition, the “isoTOP-ABPP ratio Q9HAV7_C124” value in [4] turned out to be 0.6. The “isoTOP-ABPP ratio P10599_C32” value in assay [5] (231) is listed as 0.4. Moreover, the “isoTOP-ABPP ratio P52597_C267” value in [6] (231) came to 0.8. Moreover, the “isoTOP-ABPP ratio Q9BVC5_C10” value in [7] came out at 1.0. In assay [9] (231), the “isoTOP-ABPP ratio P38606_C138” value is reported as 0.8.

Consider `C=CC(=O)Nc1cc(F)c(N2CCN(C(=O)OC(C)(C)C)CC2)c(F)c1` [compound 38], for which the “isoTOP-ABPP ratio Q99757_C90” value in assay [1] was 3.6. The “isoTOP-ABPP ratio Q93009_C223” value in assay [8] (231) is given as 0,8. For the same compound, the “isoTOP-ABPP ratio Q09161_C44” value in assay [3] is on record as 1.2. For the same compound, the “isoTOP-ABPP ratio Q9HAV7_C124” value in [4] is on record as 1.0. Besides, the “isoTOP-ABPP ratio P10599_C32” value in assay [5] (231) was 2.1. Further, in assay [6] (231), the “isoTOP-ABPP ratio P52597_C267” value worked out at 1.8. The “isoTOP-ABPP ratio Q9BVC5_C10” value in [7] turned out to be 0.9. In addition, the “isoTOP-ABPP ratio P38606_C138” value in assay [9] (231) was found to be 2.1.

For `C=CC(=O)N(Cc1cccnc1)c1cc(C(F)(F)F)cc(C(F)(F)F)c1` [compound 31], in assay [1], the “isoTOP-ABPP ratio Q99757_C90” value came to 1.4. In [3], the “isoTOP-ABPP ratio Q09161_C44” value came to 0.6. In addition, the “isoTOP-ABPP ratio P10599_C32” value in assay [5] (231) was found to be 1.2; in assay [5] (ramos) it was 1.7. For the same compound, the “isoTOP-ABPP ratio P52597_C267” value in assay [6] (231) is given as 1.2; in assay [6] (ramos), 1.3. In assay [9] (ramos), the “isoTOP-ABPP ratio P38606_C138” value is 1.7.

Consider `COc1cc2c(cc1OC)CN(C(=O)CCl)CC2` [compound 8], for which the “isoTOP-ABPP reactivity Q99757_C90 TXN2” value in assay [1] is 4.5. Further, in assay [2] (231), the “isoTOP-ABPP reactivity O95229_C54 ZWINT” value is given as 3.1. Also, the “isoTOP-ABPP reactivity Q93009_C223 USP7” value in assay [8] (231) was found to be 20.0. In assay [3], the “isoTOP-ABPP reactivity Q09161_C44 NCBP1” value was 2.0. Also, in assay [4], the “isoTOP-ABPP reactivity Q9HAV7_C124 GRPEL1” value was determined as 2.2. Moreover, the “isoTOP-ABPP reactivity P10599_C32 TXN” value in assay [5] (231) is 5.9. In addition, the “isoTOP-ABPP reactivity Q9BVC5_C10 C2orf49” value in assay [7] was 4.5. The “isoTOP-ABPP reactivity P38606_C138 ATP6V1A” value in assay [9] (231) worked out at 20.0.
